The Kinase Knowledgebase extract (Sharma et al. 2016)

Target: EGFR (human) (UniProt P00533)
Settings: a431

Chain of EGFR (human) (P00533 whole entry, looked up): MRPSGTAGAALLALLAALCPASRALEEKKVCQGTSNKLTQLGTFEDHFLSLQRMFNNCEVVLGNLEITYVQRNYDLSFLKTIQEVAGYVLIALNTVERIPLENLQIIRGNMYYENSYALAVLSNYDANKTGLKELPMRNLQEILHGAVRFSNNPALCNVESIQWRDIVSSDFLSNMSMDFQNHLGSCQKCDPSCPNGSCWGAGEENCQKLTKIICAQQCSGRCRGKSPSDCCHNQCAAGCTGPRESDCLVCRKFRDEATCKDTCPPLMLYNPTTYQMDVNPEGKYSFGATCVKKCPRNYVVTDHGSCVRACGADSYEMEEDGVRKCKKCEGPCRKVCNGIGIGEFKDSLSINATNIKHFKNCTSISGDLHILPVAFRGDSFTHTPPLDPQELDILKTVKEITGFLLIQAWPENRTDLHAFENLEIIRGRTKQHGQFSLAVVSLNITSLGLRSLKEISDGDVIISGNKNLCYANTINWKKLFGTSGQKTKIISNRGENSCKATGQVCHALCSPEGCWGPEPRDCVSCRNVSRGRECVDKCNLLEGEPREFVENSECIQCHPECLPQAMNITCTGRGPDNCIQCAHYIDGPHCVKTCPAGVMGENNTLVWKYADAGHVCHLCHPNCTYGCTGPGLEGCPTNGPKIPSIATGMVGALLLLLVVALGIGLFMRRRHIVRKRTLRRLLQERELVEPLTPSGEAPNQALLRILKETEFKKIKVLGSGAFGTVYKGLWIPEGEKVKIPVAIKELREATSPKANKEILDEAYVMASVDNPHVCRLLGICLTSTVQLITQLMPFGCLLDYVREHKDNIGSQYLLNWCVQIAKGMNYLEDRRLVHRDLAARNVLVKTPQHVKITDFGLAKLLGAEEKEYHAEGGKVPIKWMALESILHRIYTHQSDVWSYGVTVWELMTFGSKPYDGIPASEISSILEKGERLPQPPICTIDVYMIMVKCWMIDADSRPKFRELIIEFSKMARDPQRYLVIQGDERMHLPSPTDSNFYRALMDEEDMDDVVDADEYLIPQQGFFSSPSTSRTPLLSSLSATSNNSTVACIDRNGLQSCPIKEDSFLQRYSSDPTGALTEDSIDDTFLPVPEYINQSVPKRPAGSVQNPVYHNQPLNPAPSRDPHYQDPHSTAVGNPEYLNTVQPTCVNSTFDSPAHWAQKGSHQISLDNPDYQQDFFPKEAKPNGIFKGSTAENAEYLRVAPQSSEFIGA

Row | Structure (SMILES) | IC50 [µM]
1 | Brc1cccc(Nc2ncnc3c2ccc2ccccc23)c1 | > 10
2 | Cc1cccc(Nc2ncnc3cc4c(cc23)OCO4)n1 | > 10
3 | Cn1c(=O)n(C)c2cc3c(Nc4cccc(Br)c4)ncnc3cc21 | > 10
4 | FC(F)(F)c1cccc(Nc2ncnc3c2ccc2ccccc23)c1 | > 10
5 | Cc1ccnc(Nc2ncnc3cc4c(cc23)OCO4)c1 | > 10
6 | Cn1c(=O)n(C)c2cc3c(Nc4cccc(C(F)(F)F)c4)ncnc3cc21 | > 10

Next, values leading:

Row | IC50 [µM] | Structure (SMILES)
7 | > 10 | Cc1cccc(Nc2ncnc3c2ccc2ccccc23)c1
8 | > 10 | Cc1cccc(Nc2ncnc3cc4c(cc23)OCCO4)n1
9 | > 10 | Cc1cccc(Nc2ncnc3cc4c(cc23)n(C)c(=O)n4C)c1
10 | > 10 | CS(=O)(=O)Nc1cccc(Nc2ncnc3cc4c(cc23)OCO4)c1
11 | > 10 | CS(=O)(=O)Nc1cccc(Nc2ncnc3cc4c(cc23)OCCO4)c1
